The values below come from ChEMBL document CHEMBL1133293, “Synthesis of a water-soluble prodrug of entacapone” (Bioorg Med Chem Lett, 2000).

For orientation: half-life means the time in which the quantity being followed falls by half. A higher half-life goes with slow loss. As a reminder, the solubility is how much of the substance goes into solution per volume. High values mean much dissolved substance, low ones little dissolved substance.

Values after ≈ are worked out from the molar mass of the structure shown.

Series [1] can be described thus: Half life period in rabbit liver homogenate. The format is ADME, tissue-based, Oryctolagus cuniculus.
Series [2] is described as follows: Solubility at pH 7.4. The format is physicochemical. The following applies: buffer.
Series [3] can be described thus: Solubility at pH 1.2. The note with it: buffer. The format is physicochemical.
The nature of series [4]: Half life period t pH 7.4 at 37 degree Centigrade. The format is ADME.

Compound `CCN(CC)C(=O)C(C#N)=Cc1cc(O)c(O)c([N+](=O)[O-])c1` showed a half-life in series [1] of 58 min.

Consider `CCN(CC)C(=O)/C(C#N)=C/c1cc(OP(=O)([O-])[O-])c([O-])c([N+](=O)[O-])c1.[Na+].[Na+].[Na+]`, for which the solubility in series [2] and in series [3] was 30 mg/mL each time. Also, the half-life in series [4] was 92.8 days.

Turning to `CCN(CC)C(=O)/C(C#N)=C/c1cc(O)c(O)c([N+](=O)[O-])c1` [ENTACAPONE], the solubility in series [2] came out at 1.75 mg/mL (≈ 5730 µM); in series [3], 0.017 mg/mL (≈ 55.7 µM). This compound also showed a half-life in series [1] of 58 min.
